The target in the assay is Nanoluciferase-BRD9 fusion protein (Homo sapiens (Human), UniProt Q9H8M2). In words: SYO1 BRD9 NanoLuc degradation assay. The class given is cell-based. The settings on record: SYO-1 cells expressing 3×FLAG-NLuc-BRD9, 6 hours, read-out: SYO1 BRD9-NanoLuc degradation IC50. The procedure:
Procedure: A stable SYO-1 cell line expressing 3×FLAG-NLuc-BRD9 was generated. On day 0 cells were seeded in 30 μL media into each well of 384-well cell culture plates. The seeding density was 8000 cells/well. […] Subsequently plates were incubated for 6 hours in a standard tissue culture incubator and equilibrated at room temperature for 15 minutes. Nanoluciferase activity was measured by adding 15 μL of freshly prepared Nano-Glo Luciferase Assay Reagent (Promega N1130), shaking the plates for 10 minutes and reading the bioluminescence using an EnVision reader.
DMSO treated cells are employed as High Control (HC) and 1 μM of a known BRD9 degrader standard treated cells are employed as Low Control (LC).

Read-outs that look alike come from different tables or passages of the source.

Sequence of Nanoluciferase-BRD9 fusion protein (Q9H8M2 whole entry, the tested form may be a part): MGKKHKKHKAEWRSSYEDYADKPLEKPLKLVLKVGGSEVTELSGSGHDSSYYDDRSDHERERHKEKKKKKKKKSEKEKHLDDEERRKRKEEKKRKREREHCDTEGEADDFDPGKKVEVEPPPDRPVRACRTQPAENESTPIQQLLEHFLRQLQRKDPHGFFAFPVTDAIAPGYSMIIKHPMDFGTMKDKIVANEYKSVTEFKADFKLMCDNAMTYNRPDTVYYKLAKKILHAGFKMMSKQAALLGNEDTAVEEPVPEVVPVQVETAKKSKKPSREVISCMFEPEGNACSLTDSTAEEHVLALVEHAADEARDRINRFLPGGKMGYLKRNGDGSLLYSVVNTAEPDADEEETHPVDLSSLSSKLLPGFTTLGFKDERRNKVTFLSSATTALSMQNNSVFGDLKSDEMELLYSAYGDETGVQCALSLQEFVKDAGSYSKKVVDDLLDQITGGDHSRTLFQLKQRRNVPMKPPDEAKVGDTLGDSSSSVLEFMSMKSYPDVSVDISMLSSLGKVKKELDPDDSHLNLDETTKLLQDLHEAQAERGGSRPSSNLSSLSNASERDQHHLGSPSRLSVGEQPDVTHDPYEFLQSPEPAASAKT

As to `COc1cc(-c2cn(C)c(=O)c3cnccc23)cc(OC)c1CN(C)CCOCCN1CCN(c2ccc3c(c2)C(=O)N(C2CCC(=O)NC2=O)C3=O)CC1` (centres unmarked) [Compound D46, 5-(4-(2-(2-((2,6-dimethoxy-4-(2-methyl-1-oxo-1,2-dihydro-2,7-naphthyridin-4-yl)benzyl)(methyl)amino)ethoxy)ethyl)piperazin-1-yl)-2-(2,6-dioxopiperidin-3-yl)isoindoline-1,3-dione formic acid], where the note is “Table 5A”, the DC50 is below 10 nM.

For the molecule `COc1cc(-c2cn(C)c(=O)c3cnccc23)cc(OC)c1CN1CC2(CC(C(=O)NCCCCCCNc3cccc4c3C(=O)N(C3CCC(=O)NC3=O)C4=O)C2)C1` (centres unmarked) [Compound D21], the DC50 (Table 5A) is above 1000 nM.

For `COc1cc(-c2cn(C)c(=O)c3cnccc23)cc(OC)c1CN(C)CCCCN1CCCC2(CC(Oc3ccc4c(c3)C(=O)N([C@@H]3CCC(=O)NC3=O)C4=O)C2)C1` (some centres unmarked) [Compound D244], for the setting “Table 5B”, the DC50 is below 10 nM.

For the molecule `COc1cc(-c2cn(C)c(=O)c3cnncc23)cc(OC)c1CN1CCC(CN2CCC3(CC2)CC(Oc2ccc4c(c2)CN(C2CCC(=O)NC2=O)C4=O)C3)CC1` (centres unmarked) [Compound D367], the DC50 (Table 5B) was below 10 nM.

For the molecule `COc1cc(-c2cn(C)c(=O)c3cnccc23)cc(OC)c1CN1CC(CC(=O)NC2CC3(CCN(c4ccc5c(c4)C(=O)N(C4CCC(=O)NC4=O)C5=O)CC3)C2)C1` (centres unmarked) [Compound D189], the DC50 (Table 5B) was below 10 nM.

Regarding `COc1cc(-c2cn(C)c(=O)c3cnccc23)cc(OC)c1CN1CC(N(C)Cc2cccc3c2C(=O)N(C2CCC(=O)NC2=O)C3=O)C1` (centres unmarked) [Compound D28, 4-(((1-(2,6-dimethoxy-4-(2-methyl-1-oxo-1,2-dihydro-2,7-naphthyridin-4-yl)benzyl)azetidin-3-yl)(methyl)amino)methyl)-2-(2,6-dioxopiperidin-3-yl)isoindoline-1,3-dione], the DC50 (Table 5A) fell in the range of 100 to 1000 nM.

As for `COc1cc(-c2cn(C)c(=O)c3cnccc23)cc(OC)c1CN1CC2(CN(CCCC#Cc3ccc4c(c3)C(=O)N(C3CCC(=O)NC3=O)C4=O)C2)C1` (centres unmarked) [Compound D215], for the setting “Table 5B”, the DC50 was below 10 nM.

Turning to `COc1cc(-c2cn(C)c(=O)c3[nH]cc(C)c23)cc(OC)c1CN1CCC2(CC1)CN(c1ccc3c(c1)C(=O)N(C1CCC(=O)NC1=O)C3)C2` (centres unmarked) [Compound D426], for the setting “Table 5C”, the DC50 is below 10 nM.

In the case of `COc1cc(-c2cc(C(F)F)c(=O)n(C)c2)cc(OC)c1CN1CCC(CN2CCC3(CC2)CN(c2ccc4c(c2)C(=O)N(C2CCC(=O)NC2=O)C4)C3)CC1` (centres unmarked) [Compound D407], for the setting “Table 5C”, the DC50 was below 10 nM.

Take `Cn1ccc2oc(C(=O)NC3CCN(c4ccc5c(c4)C(=O)N(C4CCC(=O)NC4=O)C5)CC3)cc2c1=O` (centres unmarked) [DD16]: the DC50 (Table 5C) lay within 10 to 100 nM.

`COc1cc(-c2cn(C)c(=O)c3cnccc23)cc(OC)c1CN(C)C(=O)CCCCNC1CC2(C1)CN(c1ccc3c(c1)C(=O)N(C1CCC(=O)NC1=O)C3=O)C2` (centres unmarked) [Compound D204]: the DC50 (Table 5B) was below 10 nM.

Regarding `COc1cc(-c2cn(C)c(=O)c3cnccc23)cc(OC)c1CN1CC[C@H]1C(=O)NCCCCCCCCNc1cccc2c1C(=O)N([C@H]1CCC(=O)NC1=O)C2=O` [Compound D19, (2S)-1-((2,6-dimethoxy-4-(2-methyl-1-oxo-2,7-naphthyridin-4-yl)phenyl)methyl)-N-(8-((2-((S)-2,6-dioxopiperidin-3-yl)-1,3-dioxoisoindol-4-yl)amino)octyl) azetidine-2-carboxamide], the DC50 (Table 5A) is below 10 nM.

Consider `COc1cc(-c2cccc3c(=O)n(C)ccc23)cc(OC)c1CN1CCC2(CC1)CN(c1ccc3c(c1)C(=O)N(C1CCC(=O)NC1=O)C3)C2` (centres unmarked) [DD13], for which, where the note is “Table 5C”, the DC50 fell in the range of 10 to 100 nM.

As for `COc1cc(-c2cn(C)c(=O)c3cnccc23)cc(OC)c1CN(C)C1CCN(CCOc2ccc3c(c2)C(=O)N(C2CCC(=O)NC2=O)C3=O)CC1` (centres unmarked) [Compound D178], the DC50 (Table 5B) was below 10 nM.

As to `COc1cc(-c2cc(C(F)F)c(=O)n(C)c2C)cc(OC)c1CN1CCC(CN2CCC3(CC2)CN(c2ccc4c(c2)C(=O)N(C2CCC(=O)NC2=O)C4)C3)CC1` (centres unmarked) [Compound D410], the DC50 (Table 5C) was below 10 nM.

As for `COc1cc(-c2cn(C)c(=O)c3cnccc23)cc(OC)c1CN(C)CCN(C)CCNC(=O)COc1ccc2c(c1)C(=O)N(C1CCC(=O)NC1=O)C2=O` (centres unmarked) [DD2], the DC50 (Table 5B) was 100 to 1000 nM.

Turning to `COc1cc(-c2cn(C)c(=O)c3cnccc23)cc(OC)c1CN(C)C(=O)CCCCN1CC2(CCC(Oc3ccc4c(c3)C(=O)N(C3CCC(=O)NC3=O)C4=O)C2)C1` (centres unmarked) [Compound D207], for the setting “Table 5B”, the DC50 is below 10 nM.

Take `COc1cc(-c2cn(C)c(=O)c3cnccc23)cc(OC)c1CN1CC(S(=O)(=O)NCCN2CCN(c3ccc4c(c3)C(=O)N(C3CCC(=O)NC3=O)C4=O)CC2)C1` (centres unmarked) [Compound D179]: under “Table 5B”, the DC50 is 10 to 100 nM.

As for `COc1cc(-c2cn(C)c(=O)c3cnccc23)cc(OC)c1CN1CCC2(C1)CN(CCCC#Cc1ccc3c(c1)C(=O)N(C1CCC(=O)NC1=O)C3=O)C2` (centres unmarked) [Compound D238], for the setting “Table 5B”, the DC50 is below 10 nM.

As for `COc1cc(-c2cn(C)c(=O)c(C)c2C)cc(OC)c1CN1CC(CN2CCC3(CC2)CN(c2ccc4c(c2)C(=O)N(C2CCC(=O)NC2=O)C4=O)C3)C1` (centres unmarked) [Compound D345], the DC50 (Table 5B) was below 10 nM.

As to `COc1cc(-c2cc(C(F)F)c(=O)n(C)c2)cc(OC)c1CN1CCN(CCC2CCN(c3ccc4c(c3)C(=O)N(C3CCC(=O)NC3=O)C4)CC2)CC1` (centres unmarked) [Compound D399], the DC50 (Table 5C) is below 10 nM.

As for `COc1cc(-c2cn(C)c(=O)c3cnccc23)cc(OC)c1CN1CCC(n2cc(COCCOc3ccc4c(c3)C(=O)N(C3CCC(=O)NC3=O)C4=O)nn2)CC1` (centres unmarked) [Compound D290], where the note is “Table 5B”, the DC50 is below 10 nM.

On to `COc1cc(-c2cc(C(F)F)c(=O)n(C)c2)cc(OC)c1CN1CCC(C#Cc2ccc3c(c2)C(=O)N(C2CCC(=O)NC2=O)C3)CC1` (centres unmarked) [Compound D444], for which, under “Table 5C”, the DC50 was below 10 nM.

For `COc1cc(-c2cc(C)c(=O)n(C)c2C)cc(OC)c1CN1CCN(c2ccc3c(c2)CN(C2CCC(=O)NC2=O)C3=O)CC1` (centres unmarked) [Compound D423], the DC50 (Table 5C) was below 10 nM.

`COc1cc(-c2cc(C)c(=O)n(C)c2)cc(OC)c1CN1CC(Cc2ccc3c(c2)C(=O)N(C2CCC(=O)NC2=O)C3)C1` (centres unmarked) [Compound D449]: for the setting “Table 5C”, the DC50 lay in the range of 10 to 100 nM.

Regarding `COc1cc(-c2cn(C)c(=O)c3cnccc23)cc(OC)c1CN(C)CCCCCCCCNc1cccc2nc(C)n(C3CCC(=O)NC3=O)c(=O)c12` (centres unmarked) [DD5], the DC50 (Table 5B) was in the range of 10 to 100 nM.

On to `COc1cc(-c2cc(C(F)F)c(=O)n(C)c2)cc(OC)c1CN1CCC2(C1)CN(c1ccc3c(c1)C(=O)N(C1CCC(=O)NC1=O)C3)C2` (centres unmarked) [Compound D403], for which, where the note is “Table 5C”, the DC50 was below 10 nM.

Take `COc1cc(-c2cc(C)c(=O)n(C)c2C)c(OC)cc1CN1CC(CN2CCC3(CC2)CN(c2ccc4c(c2)C(=O)N(C2CCC(=O)NC2=O)C4=O)C3)C1` (centres unmarked) [Compound D359]: the DC50 (Table 5B) was below 10 nM.

For the molecule `COc1cc(-c2cn(C)c(=O)c3cnccc23)cc(OC)c1CN1CCC2(C1)CN(CC#Cc1ccc3c(c1)C(=O)N(C1CCC(=O)NC1=O)C3=O)C2` (centres unmarked) [Compound D268], for the setting “Table 5B”, the DC50 is below 10 nM.

On to `C/C=C/Cn1cc(-c2cc(OC)c(CN3CCC4(CC3)CN(c3ccc5c(c3)C(=O)N(C3CCC(=O)NC3=O)C5)C4)c(OC)c2)n2cncc2c1=O` (centres unmarked) [Compound D454], for which, under “Table 5C”, the DC50 is below 10 nM.

For `COc1cc(-c2cn(C)c(=O)c3cnccc23)cc(OC)c1CN1CC(CC(=O)N2CCC3C2CN3c2ccc3c(c2)C(=O)N(C2CCC(=O)NC2=O)C3=O)C1` (centres unmarked) [Compound D210], the DC50 (Table 5B) fell in the range of 10 to 100 nM.

Regarding `Cc1cc(-c2ccc(N3CCN(c4ccc5c(c4)C(=O)N(C4CCC(=O)NC4=O)C5)CC3)cc2)cn(C)c1=O` (centres unmarked) [Compound D459], the DC50 (Table 5C) is below 10 nM.

These data come from patent US11414416B1, “Compounds and uses thereof” (Foghorn Therapeutics Inc., priority 2019, dated 2022).
